{"source": "patent US20160025704A1", "about": "“METHODS FOR IDENTIFYING NEUROPROTECTIVE PKC ACTIVATORS” (priority 2013, published 2016)", "key": {"sAPP-α": {"test_system": "sAPP-α", "assay": "sAPP-α secretion in control cell lines", "type": "cell-based, human", "details": "0.1 nM"}, "[1]": {"test_system": "neurons in the CA1 hippocampal area", "assay": "Apoptotic cell death (TUNEL) in hippocampal CA1 area after ischemic (2-VO)/hypoxic event", "type": "in vivo", "details": "15 μg/m^2 tail vein, 2 doses/week for 10 doses, starting 24 hours after ischemic/hypoxic event; staining 9 day after last dose", "experimental": "Protocol: Bryostatin-1 (15 μg/m^2) was administered through a tail vein (2 doses/week, for 10 doses), starting 24 hours after the end of the ischemic (2-VO)/hypoxic event. Staining for apoptotic cell death in the hippocampal CA1 area was performed 9 day after the last bryostatin-1 dose. […] (C) Quantification of TUNEL staining in stratum radiatum (n=3 animals; n=30 confocal images). Con=control; Bry=bryostatin-1; Isch=cerebral ischemia; ***, P<0.001."}, "[2]": {"test_system": "healthy brown Norway rats", "assay": "Mushroom spine formation in healthy rats after water maze training", "type": "in vivo", "details": "given during water maze training", "source_text": "Protocol: Non-diseased, healthy brown Norway rats (at 4-5 months old) were used in this study. Bryostatin enhanced the formation of mushroom spines in healthy rats after water maze training as shown in a-e. Memory retention after water maze training (4 swims per days for 5 days) increased the number of mushroom dendritic spine and synapses with (e) perforated postsynaptic densities (PSDs), but not with macular PSDs (d). […] Nv=naîve controls; Sw=swim controls; Mz=water maze treatment; and Mz/Br=water maze treatment plus bryostatin treatment."}, "[3]": {"assay": "Bryostatin levels in plasma and brain after intravenous injection", "type": "in vivo, mice", "experimental": "Measurements of bryostatin were analyzed at different time points subsequent to administration of a high dose of bryostatin (114 μg/m2). […] The plasma/brain ratio can be greater than 30.\nProtocol: Male C57BL/6M mice (15-20 g, Charles River) were acclimatized for 7-8 days in a non-enriched environment, three mice per cage. Bryostatin (Tocris) was dissolved in DMSO, diluted into 0.9% saline, and injected into the tail vein at doses of 10 and 15 μg/m2. After a fixed period, the mice were anesthetized with CO2 and the brain was frozen on dry ice. Blood was mixed with 0.2 ml 1 mM EDTA in PBS, centrifuged at 100 g for 30 min, and plasma was frozen on dry ice. In some experiments, blood lymphocyte fractions were collected using Ficoll-Paque Plus reagent using the procedure recommended by the manufacturer. All animal procedures were approved by the institutional IACUC.\nBryostatin was injected into the tail vein of C57BL/6N mice at 10 and 15 μg/m2 (equivalent to 3.50 and 5.25 μg/kg), and brain PKC-ε concentration was measured using Western blots. Brain PKC-ε activation was biphasic, peaking at 0.5 h and slowly declined toward resting levels, even though bryostatin levels continued to increase. This is consistent with the short-lived activation of PKC established previously. […] The bryostatin concentration at 0.5 h was 0.029 nM."}, "Tg2576 mice": {"test_system": "Tg2576 mice", "assay": "Dendritic spines and synapses in hippocampal CA1 area of Tg2576 mice", "type": "in vivo"}, "HuC and HuD proteins": {"test_system": "HuC and HuD proteins", "assay": "Dendritic spines, presynaptic vesicles and HuC/HuD nuclear export in healthy rats after water maze training", "type": "in vivo", "details": "10 μg/kg body weight intraperitoneal, 3 doses every other day; two days after 6-days of training", "experimental": "Protocol: Non-diseased, healthy brown Norway rats (at 4-5 months old) were used in this study. Two days after 6-days of training, increases in dendritic spines (a, b) and presynaptic vesicle concentration (a, d) within unchanged axonal bouton density (a, c) were correlated with an increase in the nuclear export of HuC and HuD proteins into the dendritic shaft as compared with naive and swim controls (a, e). Those changes were enhanced with bryostatin treatment (10 μg/kg body weight, intraperitoneal injection, 3 doses every other day). Nv=naîve controls; Sw=swim controls; Mz=water maze treatment; and Mz/Br=water maze treatment plus bryostatin treatment)."}, "human neprilysin": {"test_system": "human neprilysin", "assay": "Membrane localization of neprilysin in SH+hNEP cells (biotinylation, Western blot)", "type": "cell-based", "details": "1 nM", "experimental": "Protocols: SHSYSY cells overexpressing human neprilysin (SH+hNEP cells) were incubated with 1 μM oligomeric Aβ(1-42) for 4 hours in the absence or presence of bryostatin (Bryo, 1 nM). Some cells were pre-treated with Ro 32-0432 (Ro, 2 μM, a PKC inhibitor) for 30 min and then treated with Bryo. Cell surface-located proteins were then biotinylated and extracted using streptavidin beads, followed by immunoprecipitation using a neprilysin antibody Immunoprecipitates were subjected to Western blot analysis using neprilysin antibody (Mean+SEM of three independent experiments, **P<0.01, Aβ compared with untreated; #P<0.01, Ro+Bryo compared with Bryo). Results are shown below in FIG. 17.\nProtocol: After SH+hNEP cells were untreated or treated with bryostatin (Bryo, 1 nM), or pre-treated with PKC inhibitor Ro 32-0432 (Ro, 2 μM) for 30 min and then treated with Bryo for 1 hour, cell surface located proteins were biotinylated and pulled down using streptavidin beads, followed by immunoprecipitation using a neprilysin antibody. […] Cells were then lysed and neprilysin activity was measured. […] Further incubation with leucine aminopeptidases released free 4-methoxy-2-naphthylamide that was measured fluorometrically at an emission of 425 nm. […]"}, "[4]": {"details": "30 μg/kg intraperitoneal twice a week from 2 months old, analysis at five months"}}, "data": [{"smiles": "CCC/C=C/C=C/C(=O)O[C@H]1/C(=C/C(=O)OC)C[C@H]2C[C@H]([C@@H](C)O)OC(=O)C[C@H](O)C[C@@H]3C[C@H](OC(C)=O)C(C)(C)[C@](O)(C[C@@H]4C/C(=C/C(=O)OC)C[C@H](/C=C/C(C)(C)[C@]1(O)O2)O4)O3", "note": "[Bryostatin, bryostatin-1]", "values": [{"measurement": "sAPP-α secretion in two control cell lines", "setting": "sAPP-α", "result": "effective in enhancing secretion in two control cell lines, although to a lesser extent than in the AD cell line"}, {"measurement": "apoptotic cell death in neurons in the CA1 hippocampal area", "setting": "[1]", "result": "prevents apoptotic cell death"}, {"measurement": "mushroom spines with macular PSDs", "setting": "[2]", "result": "significantly increased"}, {"measurement": "mushroom spines with perforated PSDs", "setting": "[2]", "result": "enhanced"}, {"measurement": "brain bryostatin relative to PKC downregulation", "setting": "[3]; FIG. 2, brain versus plasma", "result": "below PKC downregulation"}, {"measurement": "plasma/brain ratio", "setting": "[3]; single intravenous injection, 114 μg/m2, mice", "result": "greater than 30"}, {"measurement": "half-life in the brain as compared to plasma", "setting": "[3]; single intravenous injection, high dose 114 μg/m2, mice", "result": "extremely long half-life in the brain as compared to in plasma"}, {"measurement": "bryostatin concentration at 0.5 h", "setting": "[3]; tail vein 10 and 15 μg/m2, C57BL/6N mice, 0.5 h", "result": 0.029, "unit": "nM"}, {"measurement": "mushroom spine-shape dendritic spines", "setting": "Tg2576 mice; [4]", "result": "prevented decreases in mushroom spine-shape dendritic spines"}, {"measurement": "synapses (electron microscopy)", "setting": "Tg2576 mice; [4]", "result": "prevented decreases"}, {"measurement": "loss of postsynaptic dendritic spines and synapses in the hippocampal CA1 area", "setting": "Tg2576 mice; Tg2576 mice at 5 months old (FIG. 19)", "result": "protects against the loss of postsynaptic dendritic spines and synapses"}, {"measurement": "training-induced increases in dendritic spines, presynaptic vesicle concentration and nuclear export of HuC and HuD proteins", "setting": "HuC and HuD proteins", "result": "enhanced"}, {"measurement": "membrane localization of neprilysin protein inhibited by Aβ", "setting": "human neprilysin; 1 μM oligomeric Aβ(1-42), 4 hours", "result": "recovers membrane localization of neprilysin protein inhibited by Aβ"}, {"measurement": "neprilysin membrane localization", "setting": "human neprilysin; 1 hour, without Aβ", "result": "enhances neprilysin membrane localization"}]}]}
